This note sets out measurements from the NIST ThermoML archive (doi:10.1016/j.jct.2012.07.008).

A short description of the data set: molar enthalpy of vaporization or sublimation. To be noted: 298.15 K; Liquid; drop calorimetry.

Numbers after ± are expanded uncertainties.

On to `O=C1CCCc2occc21` [6,7-dihydrobenzofuran-4(5H)-one], for which the molar enthalpy is 16.6 ± 1.05 kcal/mol.
